# Measured values taken from US11661410B2 (GLOBAL BLOOD THERAPEUTICS, INC., priority 2017, dated 2023).
# Where a name gives a salt, the structure may show the parent alone.
# Target: G9a (Homo sapiens (Human), UniProt Q96KQ7)
# Test: G9a AlphaLISA enzymatic activity assay
# Assay type: biochemical
# Details: not given
# Chain of G9a (Q96KQ7 whole entry): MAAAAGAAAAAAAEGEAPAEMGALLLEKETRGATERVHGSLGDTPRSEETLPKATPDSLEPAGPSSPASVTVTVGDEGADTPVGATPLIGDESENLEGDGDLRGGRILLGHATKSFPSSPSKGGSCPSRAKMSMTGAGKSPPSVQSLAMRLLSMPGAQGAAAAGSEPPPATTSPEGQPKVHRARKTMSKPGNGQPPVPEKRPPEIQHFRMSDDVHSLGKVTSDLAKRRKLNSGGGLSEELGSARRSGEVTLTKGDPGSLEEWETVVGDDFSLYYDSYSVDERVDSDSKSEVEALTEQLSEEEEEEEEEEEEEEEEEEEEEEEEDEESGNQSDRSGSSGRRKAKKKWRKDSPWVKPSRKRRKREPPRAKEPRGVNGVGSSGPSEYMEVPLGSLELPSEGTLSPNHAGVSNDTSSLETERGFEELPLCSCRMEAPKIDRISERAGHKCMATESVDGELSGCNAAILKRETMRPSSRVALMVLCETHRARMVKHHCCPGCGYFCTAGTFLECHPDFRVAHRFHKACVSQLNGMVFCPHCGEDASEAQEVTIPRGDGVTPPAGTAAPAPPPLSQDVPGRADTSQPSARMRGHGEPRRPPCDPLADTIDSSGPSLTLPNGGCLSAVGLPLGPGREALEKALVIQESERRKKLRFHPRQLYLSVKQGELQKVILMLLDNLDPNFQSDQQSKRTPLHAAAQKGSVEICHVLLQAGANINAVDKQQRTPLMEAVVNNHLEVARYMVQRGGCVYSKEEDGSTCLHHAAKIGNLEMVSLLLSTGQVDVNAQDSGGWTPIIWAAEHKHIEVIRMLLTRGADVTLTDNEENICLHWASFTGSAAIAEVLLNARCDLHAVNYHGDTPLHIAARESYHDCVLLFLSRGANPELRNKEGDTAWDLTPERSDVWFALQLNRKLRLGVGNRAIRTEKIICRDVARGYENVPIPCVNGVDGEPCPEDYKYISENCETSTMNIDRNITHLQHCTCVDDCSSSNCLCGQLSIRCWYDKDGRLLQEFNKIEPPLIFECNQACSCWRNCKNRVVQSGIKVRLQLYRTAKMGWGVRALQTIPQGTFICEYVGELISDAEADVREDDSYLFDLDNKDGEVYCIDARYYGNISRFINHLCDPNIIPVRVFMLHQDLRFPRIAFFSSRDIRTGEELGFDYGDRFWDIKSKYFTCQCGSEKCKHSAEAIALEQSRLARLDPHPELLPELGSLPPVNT
row,Structure (SMILES),pIC50
1,COc1cc2nc3c(c(N[C@@H]4CCCN(C)C4)c2cc1OC)CCC3,5.48
2,"COc1cc2nc3c(c(N[C@@H]4CCCNCC4)c2nc1OC)CCC3 [Example 163, (4R)-N-[2,3-dimethoxy-6H,7H,8H-cyclopenta[b]1,5-naphthyridin-9-yl] azepan-4-amine]",6.8
3,COc1cc2nc3c(c(NC4CCN(c5ccccc5Cl)CC4)c2cc1OC)CCC3,6.72
4,COc1cc2nc3c(c(NCc4cn(C)cn4)c2cc1OC)CCC3 [Example 41],5.32
5,COc1cc2nc3ccccc3c(NC3CCN(C(C)C)CC3)c2cc1OC [Example 46],6.75
6,COc1cc2nc3ccccc3c(NC3CCN(C(C)C)CC3)c2cc1OC [Example 47],7.1

# Same assay, conditions: G9a AlphaLISA; negative log of the IC50 value in molar
Structure (SMILES),pIC50,IC50 [µM]
"COc1cc2nc3c(c(NC[C@@H]4CCCNC4)c2cc1OC)CCC3 [Example 68, 6,7-dimethoxy-N-{[(3R)-piperidin-3-yl]methyl}-1H,2H,3H-cyclopenta[b]quinolin-9-amine]",6.9,
"CCCOc1cc2nc3c(c(NC)c2cc1OC)CCC3 [Example 2, bis(formic acid)]",5,
COc1cc2nc3c(c(NC4CN(C(=O)OC(C)(C)C)C4)c2cc1OC)CCC3 [Example 12],5.5,
"COc1cc2nc3c(c(NCCNC(C)C)c2cc1OC)CCC3 [Example 403, 6,7-dimethoxy-N-{2-[(propan-2-yl)amino]ethyl}-1H,2H,3H-cyclopenta[b]quinolin-9-amine]",7.5,
COc1cc2c(NC(C)C)c3c(nc2cc1OCCOCCO)CCC3 [Example 6],5,
"COc1cc2nc3c(c(N[C@@H]4CCCN(C)CC4)c2nc1OC)CCC3 [Example 165, (4R)-N-{2,3-dimethoxy-6H,7H,8H-cyclopenta[b]1,5-naphthyridin-9-yl}-1-methylazepan-4-amine]",7,
COc1cc2nc3c(c(NC[C@H]4CCCNC4)c2cc1OC)CCC3 [Example 69],7.1,
COc1cc2nc3c(c(NC4CCN(C(CO)CCl)CC4)c2cc1OC)CCC3 (stereo not drawn) [Example 44],5.49,
COc1cc2c(NC(C)C)c3c(nc2cc1OCCCC(C)O)CCC3 (stereo not drawn) [Example 31],6.23,
COc1cc2c(NC(C)C)c3c(nc2cc1OCCCCCO)CCC3 [Example 21],5.3,
"COc1cc2nc3c(c(N[C@@H]4CCCN(C)C4)c2nc1OC)CCC3 [Example 164, (3R)-N-[2,3-dimethoxy-6H,7H,8H-cyclopenta[b]1,5-naphthyridin-9-yl]-1-methylpiperidin-3-amine]",6.2,
COc1cc2nc3c(c(NCC4CN(C)C4)c2cc1OC)CCC3 [Example 11],7.49,
COc1cc2nc3c(c(NC4CC5(C4)CN(C(=O)OC(C)(C)C)C5)c2cc1OC)CCC3 [Example 17],5.5,
"COc1cc2nc3c(c(NC(C)C)c2cc1OC)CCC3 [Example 1, 6,7-dimethoxy-N-(propan-2-yl)-1H,2H,3H-cyclopenta[b]quinolin-9-amine formate]",5.97,
"COc1cc2nc3c(c(N[C@@H]4CCCNC4)c2nc1OC)CCC3 [Example 149, (3R)-N-[2,3-dimethoxy-6H,7H, 8Hcyclopenta[b]1,5naphthyridin-9-yl]piperidin-3-amine]",7.2,
"COc1cc2nc3c(c(NC[C@@H]4C[C@H](F)CN4)c2cc1OC)CCC3 [Example 411, N-{[(2S,4S)-4-fluoropyrrolidin-2-yl]methyl}-6,7-dimethoxy-1H,2H,3H-cyclopenta[b]quinolin-9-amine]",6.3,
COc1cc2nc3c(c(NCC4CC(N(C)C)C4)c2cc1OC)CCC3 (stereo not drawn),5.24,
"COc1cc2c(NC3CCN(C(C)C)CC3)c3c(nc2cc1C1CC1)CCC3 [Example 57, N-{6-cyclopropyl-7-methoxy-1H,2H,3H-cyclopenta[b]quinolin-9-yl}-1-(propan-2-yl)piperidin-4-amine]",6.72,
COc1cc2nc3c(c(N[C@@H]4CCCNC4)c2cc1OC)CCC3 [Example 29],6.81,
COc1cc2nc3c(c(N[C@H]4CCCN(C)C4)c2cc1OC)CCC3 [Example 30],7.83,
CC(C)N1CCC(Nc2c3c(nc4cc5c(cc24)OCO5)CCC3)CC1 [Example 20],7.53,
CNc1c2c(nc3cc(OCCCOC)c(OC)cc13)CCC2 [Example 3],5.53,
"COc1cc2nc3c(c(NC4CCN(C(C)C)CC4)c2nc1OC)CCC3 [Example 134, N-[2,3-dimethoxy-6H,7H,8H-cyclopenta[b]1,5-naphthyridin-9-yl]-1-(propan-2-yl)piperidin-4-amine]",6.8,
"COc1cc2nc3c(c(N[C@H]4CNC[C@@H](C)C4)c2cc1OC)CCC3 [Example 286, (3R,5S)-N-{6,7-dimethoxy-1H,2H,3H-cyclopenta[b]quinolin-9-yl}-5-methylpiperidin-3-amine]",8,
"CCOc1cc2nc3c(c(N[C@@H]4CCCNC4)c2cc1OCC)CCC3 [Example 406, (3R)-N-[6,7-di(2H3)ethoxy-1H,2H,3H-cyclopenta[b]quinolin-9-yl]piperidin-3-amine]",,> 10

# Next, values leading:
pIC50,IC50 [µM],Structure (SMILES)
7.6,,"CCN1CCC[C@@H](Nc2c3c(nc4cc(OC)c(OC)cc24)CCC3)CC1 [Example 64, (4R)-N-{6,7-dimethoxy-1H,2H,3H-cyclopenta[b]quinolin-9-yl}-1-ethylazepan-4-amine]"
,> 10,"COc1cc2nc3c(c(N[C@H]4CNCC(F)(F)C4)c2cc1OC)CCC3 [Example 410, (3R)-N-{6,7-dimethoxy-1H,2H,3H-cyclopenta[b]quinolin-9-yl}-5,5-difluoropiperidin-3-amine]"
6.54,,"COc1cc2c(NC3CCN(C(C)C)CC3)c3c(nc2cc1OCCO)CCC3 [Example 53, 2-[(7-methoxy-9-{[1-(propan-2-yl)piperidin-4-yl]amino}-1H,2H,3H-cyclopenta[b]quinolin-6-yl)oxy]ethan-1-ol]"
7.4,,"COc1cc2nc3c(c(NC4CCN(C5CCCC5)CC4)c2cc1OC)CCC3 [Example 60, 1-cyclopentyl-N-{6,7-dimethoxy-1H,2H,3H-cyclopenta[b]quinolin-9-yl}piperidin-4-amine]"
,> 10,"COc1cc2nc3c(c(N[C@@H]4CNCC(C)(C)C4)c2cc1OC)CCC3 [Example 415, (3S)-N-{6,7-dimethoxy-1H,2H,3H-cyclopenta[b]quinolin-9-yl}-5,5-dimethylpiperidin-3-amine]"
7.9,,"COc1cc2nc3c(c(N[C@H]4CNC[C@H](C)C4)c2cc1OC)CCC3 [Example 409, (3R,5R)-N-{6,7-dimethoxy-1H,2H,3H-cyclopenta[b]quinolin-9-yl}-5-methylpiperidin-3-amine]"
7.22,,COc1cc2nc3c(c(NC4CNC4)c2cc1OC)CCC3 [Example 13]
7.05,,COc1cc2nc3c(c(NC4CCN(c5cccnc5)CC4)c2cc1OC)CCC3 [Example 23]
5.78,,COc1cc2nc3c(c(NC4CCN(C(C)C)CC4)c2cc1OC)CCCCC3 [Example 33]
8.08,,CCN1CC(Nc2c3c(nc4cc(OC)c(OC)cc24)CCC3)C1 [Example 27]
7.5,,"COc1cc2nc3c(c(N[C@@H]4CCCN(C)CC4)c2cc1OC)CCC3 [Example 63, (4R)-N-{6,7-dimethoxy-1H,2H,3H-cyclopenta[b]quinolin-9-yl}-1-methylazepan-4-amine]"
7.3,,"COc1cc2nc3c(c(NCC4CCCN4)c2cc1OC)CCC3 (stereo not drawn) [Example 66, 6,7-dimethoxy-N-[(pyrrolidin-2-yl)methyl]-1H,2H,3H-cyclopenta[b]quinolin-9-amine]"
6.85,,COc1cc2nc3c(c(NC4CCN(c5ccc(F)cc5)CC4)c2cc1OC)CCC3
6.05,,"COc1cc2nc3c(c(NC4CCN(c5ccncc5F)CC4)c2cc1OC)CCC3 [Example 55, N-{6,7-dimethoxy-1H,2H,3H-cyclopenta[b]quinolin-9-yl}-1-(3-fluoropyridin-4-yl)piperidin-4-amine]"
6.21,,COc1cc2nc3c(c(NC4CCN(c5ccncc5)CC4)c2cc1OC)CCC3 [Example 22]
6.45,,COc1cc2c(NC3CCN(C(C)C)CC3)c3c(nc2cc1OCCCO)CCC3 [Example 51]
6.9,,"COc1cc2nc3c(c(N[C@@H]4CNC[C@H](C)C4)c2cc1OC)CCC3 [Example 408, (3S,5R)-N-{6,7-dimethoxy-1H,2H,3H-cyclopenta[b]quinolin-9-yl}-5-methylpiperidin-3-amine]"
6.12,,"COc1cc2nc3c(c(NC4CCN(C(N)=O)CC4)c2cc1OC)CCC3 [Example 58, 4-({6,7-dimethoxy-1H,2H,3H-cyclopenta[b]quinolin-9-yl}amino)piperidine-1-carboxamide]"
7.07,,COc1cc2nc3c(c(NC4CCN(Cc5ccccc5)CC4)c2cc1OC)CCC3 [Example 45]
6.39,,COc1cc2nc3c(c(NC4CCN(C(=O)COCc5ccccc5)CC4)c2cc1OC)CCC3 [Example 52]
7.53,,COc1cc2nc3c(c(NC4CCN(c5ccccc5F)CC4)c2cc1OC)CCC3 [Example 26]
5,,"COc1cc2nc3c(c(NC4CC5(CNC5)C4)c2cc1OC)CCC3 [Example 19, bis(formic acid)]"
5.87,,COc1cc2nc3c(c(NC4CCN(c5cccc(F)c5)CC4)c2cc1OC)CCC3 [Example 25]
7.5,,"COc1cc2nc3c(c(N[C@@H]4CCCNCC4)c2cc1OC)CCC3 [Example 62, (4R)-N-{6,7-dimethoxy-1H,2H,3H-cyclopenta[b]quinolin-9-yl}azepan-4-amine]"
7.67,,CCN1CCC(Nc2c3c(nc4cc(OC)c(OC)cc24)CCC3)CC1 [Example 15]
7.2,,"COc1cc2nc3c(c(N[C@H]4CNCC(C)(C)C4)c2cc1OC)CCC3 [Example 414, (3R)-N-{6,7-dimethoxy-1H,2H,3H-cyclopenta[b]quinolin-9-yl}-5,5-dimethylpiperidin-3-amine]"
6.11,,COc1cc2nc3c(c(NC4CCN(c5ccccn5)CC4)c2cc1OC)CCC3 [Example 24]
5.55,,COc1cc2nc3c(c(NC4CCN(c5ccccc5)CC4)c2cc1OC)CCC3 [Example 14]
7,,"COc1cc2nc3c(c(NCC4CCNCC4)c2cc1OC)CCC3 [Example 67, 6,7-dimethoxy-N-[(piperidin-4-yl)methyl]-1H,2H,3H-cyclopenta[b]quinolin-9-amine]"
